The subject of one series is RD. In words: (§1) Cytotoxicity against human RD cells assessed as reduction in cell viability by Cell Titer-Glo luminescent cell viability assay. Format: cell-based. The settings on record: rd.
A short description of series [1]: Selectivity index, ratio of CC50 for human RD cells to IC50 for Enterovirus D68 infected in human RD cells. Type of series: toxicity, cell-based. The settings on record: read-out: Selectivity Index.
Series [2] is described as follows: Tmax in CD-1 mouse at 5 mg/kg, iv by LC-MS/MS. Conditions: in vivo. Format: ADME, organism-based.
Series [3] can be described thus: Tmax in CD-1 mouse at 25 mg/kg, po by LC-MS/MS. Format: ADME, organism-based. The settings on record: in vivo.
Series [4] in a line: AUC ( 0 to last) in CD-1 mouse at 5 mg/kg, iv by LC-MS/MS. Format: ADME, organism-based. Details: time 0 - last, route intravenous, dose 5 mg/kg. Conditions: in vivo.
For another series, the system named is Enterovirus A71. In words: Antiviral activity against Enterovirus A71 infected in human RD cells assessed as inhibition of viral replication measured after 4 days by Cell Titer-Glo luminescent cell viability assay. Format: functional, organism-based. Conditions: Enterovirus A, 96 h. For orientation: ATP-based viability assays read luminescence as a measure of living cells.

Series [5] can be described thus: Cmax in CD-1 mouse at 5 mg/kg, iv by LC-MS/MS. Format: ADME, organism-based. Details: route intravenous, dose 5 mg/kg. Conditions: in vivo.
The nature of series [6]: AUC ( 0 to last) in CD-1 mouse at 25 mg/kg, po by LC-MS/MS. Type of series: ADME, organism-based. Set-up: time 0 - last, route oral, dose 25 mg/kg. The settings on record: in vivo.
Another series concerns enterovirus D68. Put plainly: Antiviral activity against Enterovirus D68 infected in human RD cells assessed as inhibition of viral replication measured after 4 days by Cell Titer-Glo luminescent cell viability assay. Format: functional, organism-based. The settings on record: Enterovirus D, 96 h.
Series [7] can be described thus: Half life in CD-1 mouse at 25 mg/kg, po by LC-MS/MS. The settings on record: in vivo. Type of series: ADME, organism-based.
Series [8] can be described thus: Cmax in CD-1 mouse at 25 mg/kg, po by LC-MS/MS. Format: ADME, organism-based. Set-up: route oral, dose 25 mg/kg. The settings on record: in vivo.
A short description of series [9]: Half life in CD-1 mouse at 5 mg/kg, iv by LC-MS/MS. Type of series: ADME, organism-based. Conditions: in vivo.
Series [10] can be described thus: AUC ( 0 to infinity ) in CD-1 mouse at 5 mg/kg, iv by LC-MS/MS. Format: ADME, organism-based. Details: route intravenous, time infinity, dose 5 mg/kg. The settings on record: in vivo.
Series [11] can be described thus: Selectivity index, ratio of CC50 for human RD cells to IC50 for Enterovirus A71 infected in human RD cells. Type of series: toxicity, cell-based. The settings on record: read-out: Selectivity Index.
A short description of series [12]: AUC ( 0 to infinity ) in CD-1 mouse at 25 mg/kg, po by LC-MS/MS. Type of series: ADME, organism-based. Set-up: time infinity, route oral, dose 25 mg/kg. The settings on record: in vivo.
Series [13] in a line: Tmax in CD-1 mouse assessed as parent NITD008 level at 5 mg/kg, iv by LC-MS/MS analysis. The settings on record: in vivo. Type of series: ADME, organism-based.
Series [14] in a line: Cmax in CD-1 mouse assessed as parent NITD008 level at 25 mg/kg, po by LC-MS/MS analysis. Format: ADME, organism-based. Set-up: route oral, dose 25 mg/kg. The settings on record: in vivo.
The nature of series [15]: Half life in CD-1 mouse assessed as parent NITD008 level at 5 mg/kg, iv by LC-MS/MS analysis. Type of series: ADME, organism-based. Conditions: in vivo.
The nature of series [16]: AUClast in CD-1 mouse assessed as parent NITD008 level at 25 mg/kg, po by LC-MS/MS analysis. Type of series: ADME, organism-based. The settings on record: in vivo. Details: route oral, time 0 - last, dose 25 mg/kg.
Series [17] can be described thus: AUClast in CD-1 mouse assessed as parent NITD008 level at 5 mg/kg, iv by LC-MS/MS analysis. Type of series: ADME, organism-based. Set-up: route intravenous, time 0 - last, dose 5 mg/kg. Conditions: in vivo.
A short description of series [18]: as §1. Format: cell-based. Conditions: RD cells.
Series [19] can be described thus: Half life in CD-1 mouse assessed as parent NITD008 level at 25 mg/kg, po by LC-MS/MS analysis. Type of series: ADME, organism-based. Conditions: in vivo.
The nature of series [20]: AUCinf in CD-1 mouse assessed as parent NITD008 level at 25 mg/kg, po by LC-MS/MS analysis. Type of series: ADME, organism-based. Conditions: in vivo. Details: route oral, time infinity, dose 25 mg/kg.
The nature of series [21]: Tmax in CD-1 mouse assessed as parent NITD008 level at 25 mg/kg, po by LC-MS/MS analysis. Format: ADME, organism-based. Conditions: in vivo.
Series [22] in a line: Cmax in CD-1 mouse assessed as parent NITD008 level at 5 mg/kg, iv by LC-MS/MS analysis. Type of series: ADME, organism-based. Details: route intravenous, dose 5 mg/kg. The settings on record: in vivo.
Series [23] in a line: AUCinf in CD-1 mouse assessed as parent NITD008 level at 5 mg/kg, iv by LC-MS/MS analysis. Conditions: in vivo. Format: ADME, organism-based. Details: route intravenous, time infinity, dose 5 mg/kg.

Molecules are shown by their SMILES.

Consider `C#C[C@@]1(O)[C@H](O)[C@@H](CO)O[C@H]1n1ccc2c(N)ncnc21`, for which the CC50 in the series on RD was above 20000 nM. Besides, the values for the selectivity ratio in series [1] and in [11] were above 87.1 and above 36.2, respectively. Moreover, the Tmax in series [2] turned out to be 1.98 min; in [3], 0.83 h. The AUC(0-t) in series [4] was determined as 1970 ng·h/mL; in series [6], 2700 ng·h/mL. The values for the IC50 with Enterovirus A71 and with enterovirus D68 were 550 nM and 230 nM, respectively. The figures for the Cmax in series [5] and in series [8] were 6760 ng/mL and 579 ng/mL, respectively. Further, the half-life is 5.09 h in series [7] and 9.1 h in [9]. In addition, the AUC(0-inf) was determined as 2080 ng·h/mL in series [10] and 2790 ng·h/mL in series [12].
With `C#C[C@@]1(O)[C@H](O)[C@@H](COP(=O)(N[C@@H](C)C(=O)OCCCCCC)Oc2ccccc2)O[C@H]1n1ccc2c(N)ncnc21` (stereo not given in full), the Tmax was determined as 1.98 min in [13] and 0.14 h in series [21]. In addition, the highest concentration (Cmax) in [14] came to 103 ng/mL; in [22], 1403 ng/mL. The results for the t1/2 in series [15] and in series [19] were 4.05 h and 5.39 h, respectively. Also, the AUClast in series [16] is 334 ng·h/mL; in series [17] it was 359 ng·h/mL. Further, in [18], the CC50 was determined as 34000 nM. The selectivity ratio in series [1] was 94.5; in series [11], 262. Besides, the IC50 in the series on Enterovirus A71 was found to be 130 nM; with enterovirus D68 it was 360 nM. For the same compound, the AUC turned out to be 368 ng·h/mL in series [20] and 373 ng·h/mL in series [23].
As for `C#C[C@@]1(O)[C@H](O)[C@@H](COP(=O)(N[C@H](C(=O)OC)C(C)C)Oc2ccccc2)O[C@H]1n1ccc2c(N)ncnc21` (stereo not given in full), in the series with RD, the CC50 is above 100000 nM. Also, the selectivity ratio is above 6.61 in [1] and above 72 in series [11]. In addition, the values for the IC50 in the series with Enterovirus A71 and in the series on enterovirus D68 were 1390 nM and 2650 nM, respectively.
Taken in the same sequence, the figures for `C#C[C@@]1(O)[C@H](O)[C@@H](COP(=O)(N[C@H](C)C(=O)OC(C)C)Oc2ccccc2)O[C@H]1n1ccc2c(N)ncnc21` (stereo not given in full) were above 100000 nM, above 8.75, above 15.8, 6310 nM and 13400 nM.
With `C#C[C@@]1(O)[C@H](O)[C@@H](COP(=O)(N[C@@H](C)C(=O)OCC(C)(C)C)Oc2ccccc2)O[C@H]1n1ccc2c(N)ncnc21` (stereo not given in full), the Tmax amounted to 1.98 min in [13] and 0.83 h in series [21]. Further, the Cmax is 165 ng/mL in series [14] and 1983 ng/mL in [22]. In addition, the t1/2 was determined as 3.3 h in series [15] and 4.97 h in series [19]. Also, the results for the AUClast in series [16] and in [17] were 722 ng·h/mL and 800 ng·h/mL, respectively. The CC50 in [18] came to 30200 nM. In addition, the selectivity ratio in [1] was 57.1; in [11], 77.5. Also, the IC50 was found to be 390 nM in the series with Enterovirus A71 and 530 nM with enterovirus D68. Besides, the AUC in [20] was determined as 744 ng·h/mL; in series [23], 833 ng·h/mL.
As for `C#C[C@@]1(O)[C@H](O)[C@@H](COP(=O)(NCC(=O)OC(C)C)Oc2ccccc2)O[C@H]1n1ccc2c(N)ncnc21` (stereo not given in full), the CC50 in the series with RD was above 100000 nM. In addition, the selectivity ratio was above 14.1 in series [1] and above 15.1 in [11]. The values for the IC50 in the series on Enterovirus A71 and with enterovirus D68 were 6610 nM and 7930 nM, respectively.
Turning to `C#C[C@@]1(O)[C@H](O)[C@@H](COP(=O)(N[C@@H](C)C(=O)OC2CCCCC2)Oc2ccccc2)O[C@H]1n1ccc2c(N)ncnc21` (stereo not given in full), the results for the Tmax in series [13] and in series [21] were 1.98 min and 0.5 h, respectively. The Cmax in [14] came to 70 ng/mL; in series [22], 1421 ng/mL. Also, the t1/2 in series [15] was determined as 9.8 h; in series [19], 5.68 h. Besides, the results for the AUClast in [16] and in series [17] were 257 ng·h/mL and 522 ng·h/mL, respectively. The CC50 in [18] came out at 22200 nM. For the same compound, the selectivity ratio was found to be 131 in series [1] and 117 in series [11]. The IC50 in the series with Enterovirus A71 was found to be 190 nM; with enterovirus D68, 170 nM. In addition, the figures for the AUC in series [20] and in series [23] were 281 ng·h/mL and 558 ng·h/mL, respectively.
As to `C#C[C@@]1(O)[C@H](O)[C@@H](COP(=O)(N[C@@H](C(=O)OC)C(C)C)Oc2ccccc2)O[C@H]1n1ccc2c(N)ncnc21` (stereo not given in full), the CC50 in the series with RD is above 100000 nM. Also, the selectivity ratio in series [1] was above 8.55; in series [11], above 7.86. In addition, the IC50 was 12700 nM in the series on Enterovirus A71 and 21600 nM in the series with enterovirus D68.
For `C#C[C@@]1(O)[C@H](O)[C@@H](COP(=O)(N[C@@H](C)C(=O)OCCCC)Oc2ccccc2)O[C@H]1n1ccc2c(N)ncnc21` (stereo not given in full) the same measures were above 200000 nM, above 556, above 345, 580 nM and 360 nM.
Take `C#C[C@@]1(O)[C@H](O)[C@@H](COP(=O)(N[C@@H](C)C(=O)OC(CC)CC)Oc2ccccc2)O[C@H]1n1ccc2c(N)ncnc21` (stereo not given in full): in the series on RD, the CC50 was above 200000 nM. In addition, the selectivity ratio in series [1] was above 171; in series [11], above 139. For the same compound, the IC50 in the series on Enterovirus A71 worked out at 1440 nM; with enterovirus D68, 1170 nM.
Taken in the same sequence, the figures for `C#C[C@@]1(O)[C@H](O)[C@@H](COP(=O)(N[C@@H](C)C(=O)OC)Oc2ccccc2)O[C@H]1n1ccc2c(N)ncnc21` (stereo not given in full) were above 100000 nM, above 59.9, above 86.2, 1160 nM and 1670 nM.
As for `C#C[C@@]1(O)[C@H](O)[C@@H](COP(=O)(N[C@H](Cc2c[nH]c3ccccc23)C(=O)OC(C)C)Oc2ccccc2)O[C@H]1n1ccc2c(N)ncnc21` (stereo not given in full), the CC50 in [18] was found to be 42000 nM. The selectivity ratio worked out at 5.38 in [1] and 25.9 in series [11]. The IC50 came out at 1620 nM with Enterovirus A71 and 7810 nM in the series on enterovirus D68.

As usually defined, the CC50 is the concentration at which the toxic effect on the cells reaches its halfway point. For orientation: Tmax means the time at which the peak concentration occurs. Broadly, the AUC(0-t) is the area under the concentration-time curve up to a stated or last time point. A lower AUC(0-t) goes with less exposure. For orientation: IC50 means the concentration that gives 50% inhibition. One may read the Cmax as the highest concentration seen after dosing. For orientation: half-life means the time in which the quantity being followed falls by half. The low end stands for rapid decline, the high end for slow decline. Broadly, the AUC(0-inf) is the area under the concentration-time curve extrapolated to infinity. For orientation: AUC means the area under the concentration-time curve, a measure of exposure.

Values taken from ChEMBL document CHEMBL5034026, “Design, synthesis and evaluation of 2'-acetylene-7-deaza-adenosine phosphoamidate derivatives as anti-EV71 and anti-EV-D68 agents” (Eur J Med Chem, 2021).
